Like-named read-outs stand apart in the source and are kept apart here.
Legend:
[1] = target: IL-2-Inducible T-Cell Kinase (ITK) (Homo sapiens (Human), UniProt Q08881); experiment: ITK enzyme assay; assay type: biochemical; conditions: geometric mean of count n; ITK FL enzyme, BTK peptide substrate
Description: IL-2-Inducible T-Cell Kinase (ITK) Activity, IC50 (uM)
ITK activity was determined by measuring the effect of a test compound in an ITK enzyme assay.
1.0 M HEPES Buffer pH 7.5 solution was prepared as follows: 238.3 g HEPES free acid (Sigma) and 800 mL of water were combined, and the mixture was stirred until complete dissolution. The pH was adjusted to 7.5 via titration with 5N NaOH and the volume adjusted to 1000 mL. The solution was filtered and sterilized.
ITK assay buffer was prepared as follows: 50 mL of HPLC-grade water was treated with 2 mL of 1.0 M HEPES Buffer, 500 μL of 2% Gelatin (Sigma), 1.0 mL of aqueous MgCl2 solution (1.0 M), and 1.0 mL of aqueous glutathione solution (0.5 M), and the solution was mixed. The solution was brought to 99 mL in a graduated cylinder by addition of water and sterilized through a 0.2 μm filter. 0.1 mL of Brij-35™ Surfact-AmpS™ Detergent Solution (10% w/v aqueous solution, ThermoFisher) and 1.0 mL of ATP (Teknova, 100 mM) were added and the solution was mixed.
Preparation of 1.33×ITK enzyme solution was as follows: 49.99 mL of ITK assay buffer was treated with 4.1 μL of ITK enzyme (ITK FL (N-Flag and C-His tagged, ˜72 kDa) Lake Pharma, 0.25 mg/ml in a buffer containing 25 mM Tris pH 7.8, 150 mM NaCl, 10% glycerol and 2 mM TCEP) and the mixture was gently agitated. The resulting solution was stored on ice. 30 Minutes prior to use, the enzyme solution was removed from ice and equilibrated to RT by incubation in a RT water bath.
Preparation of 4×ITK substrate solution was as follows: 50 mL of ITK assay buffer was treated with 100 μL of BTK peptide (China Peptide Company, 2 mM stock solution in DMSO). The tube was capped, mixed by gently inverting the tube, and then stored on ice. 30 Minutes prior to use, the substrate solution was removed from ice and equilibrated to RT by incubation in a RT water bath.
At the time of assay, 7.5 μL of the 1.33×ITK enzyme solution was added to plate wells containing 0.1 μL of varying concentrations of test compound in DMSO. The plate was incubated 30 min at RT. The plate wells were each treated with 2.5 uL of the 4×ITK substrate solution and the plate was sealed (TopSeal™, Perkin Elmer). The plate was spun at 1000 rpm for 30 sec and then incubated for 60 min at RT. The seal was removed, and each well was treated with 10 μL of Stop/Detect Buffer (20 mM HEPES pH 7.5, 0.01% gelatin, 1 nM LANCE PT66 (Perkin Elmer), 16.5 μg/ml Surelight APC (Perkin Elmer), 10 mM EDTA, 250 mM NaCl). The plate was again covered and was spun at 1000 rpm for 30 seconds. The plate was allowed to incubate overnight at RT and in a closed carrier to reduce dehydration. The seal was removed, and the fluorescence was read with a plate reader with […]. The concentrations and resulting effect values for the tested compound were plotted and the concentration of compound required for 50% effect (IC50) was determined with the four-parameter logistic dose response equation.

[2] = tested on: IL-2 in supernatants from activated CD4+ human T-cells; experiment: IL-2 inhibition in supernatants from activated CD4+ human T-cells (cisbio HTRF); assay type: cell-based; conditions: T-cell, read-out: IL-2 IC50
Description: IL-2-Inhibition Activity, IC50 (uM)
IL-2 inhibition activity in supernatants from activated CD4+ human T-cells was determined by measuring the effect of a test compound on the activity using the cisbio HTRF™ technology.
Human CD4+ T cells were activated with CD3/CD28 for 3 days and expanded for an additional 4-6 days (7 to 9 days total). On day 0, frozen CD4+ T cells were thawed, treated with CD3/CD28 Dynabeads, and incubated at 37° C./5% CO2. On day 3, the beads were removed, and the cells were diluted to 5×10^5 cells/cm^2, placed in G-Rex10 flask, and incubated at 37° C./5% CO2. On day 7 to day 9 the cells were removed from the G-Rex flasks, counted and diluted back to 1×10^6 cells/ml in standard tissue culture flask.
The expanded CD4+ T-cells were centrifuged at 300×g for 10 minutes and resuspended to 0.5 million cells per ml (30,000 cells/well). 60 μl of CD4+ T cells were added per well to a 384 well plate containing 0.1 μL of varying concentrations of test compound in DMSO. The plates were incubated for 15 min at 37° C./5% CO2. 20 μl of diluted ImmunoCult™ (STEMCELL Technologies, 1:12.5 in T cell assay media) were added to all wells of the plate (1:50 final assay concentration). The plates were incubated for an additional 20 to 24 hrs at 37° C./5% CO2. The plates were centrifuged at 300×g for 10 minutes. 16 μL of supernatant was removed and combined with 4 μl of IL-2 HTRF Abs. (cisbio kit). Plates were incubated for 3 hours at RT and read with an EnVision plate reader at 665 nm and 615 nm wavelengths. The concentrations and resulting effect values for the tested compound were plotted and the concentration of compound required for 50% effect (IC50) was determined with the four-parameter logistic dose response equation.

[3] = target: Tropomyosin Receptor Kinase A (TRKA, NTRK1 enzyme) (Homo sapiens (Human), UniProt P04629); experiment: TRKA (NTRK1) ThermoFisher Z'-LYTE assay; assay type: biochemical; conditions: read-out: TRKA % inhibition
Description: Tropomyosin Receptor Kinase a (TRKA) Activity, % Inhibition
TRKA, also known as neurotrophic tyrosine kinase receptor type 1 (NTKR1) activity was determined by measuring the effect of a test compound on the activity against the NTRK1 enzyme using the ThermoFisher Z′-LYTE Assay fluorescence-based coupled enzyme format (www.thermofisher.com/selectscreen). Test compounds were screened at a fixed concentration of 1 uM and the % inhibition was determined compared to controls at a fixed ATP concentration of 1 mM. The resulting effect value for the tested compound was compared to the assay controls to determine the % inhibition (%). % Inhibition (%) values for compounds of the invention are presented in the Table that follows.

[4] = geometric mean of count n, activated CD4+ human T-cells, 20 to 24 hrs
[5] = test compound 1 uM, ATP 1 mM, arithmetic mean of count n

IL-2-Inducible T-Cell Kinase (ITK), sequence (Q08881 whole entry): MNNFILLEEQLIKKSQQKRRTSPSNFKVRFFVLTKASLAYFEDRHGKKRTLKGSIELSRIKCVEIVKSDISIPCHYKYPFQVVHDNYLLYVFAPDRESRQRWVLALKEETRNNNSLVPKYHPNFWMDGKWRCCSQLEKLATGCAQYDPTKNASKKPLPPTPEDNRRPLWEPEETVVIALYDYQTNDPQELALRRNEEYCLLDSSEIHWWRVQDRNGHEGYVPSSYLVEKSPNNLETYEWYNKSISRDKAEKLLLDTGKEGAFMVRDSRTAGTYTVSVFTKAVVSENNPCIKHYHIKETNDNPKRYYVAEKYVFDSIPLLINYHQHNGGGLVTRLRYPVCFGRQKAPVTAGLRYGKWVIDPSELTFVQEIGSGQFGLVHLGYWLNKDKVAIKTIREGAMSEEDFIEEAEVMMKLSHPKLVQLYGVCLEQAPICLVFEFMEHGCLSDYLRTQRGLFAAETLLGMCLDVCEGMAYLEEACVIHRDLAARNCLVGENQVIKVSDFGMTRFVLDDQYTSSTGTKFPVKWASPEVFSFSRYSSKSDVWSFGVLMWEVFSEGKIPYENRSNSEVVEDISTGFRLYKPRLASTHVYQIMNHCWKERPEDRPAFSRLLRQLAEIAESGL
Tropomyosin Receptor Kinase A (TRKA, NTRK1 enzyme), sequence (P04629 33-796): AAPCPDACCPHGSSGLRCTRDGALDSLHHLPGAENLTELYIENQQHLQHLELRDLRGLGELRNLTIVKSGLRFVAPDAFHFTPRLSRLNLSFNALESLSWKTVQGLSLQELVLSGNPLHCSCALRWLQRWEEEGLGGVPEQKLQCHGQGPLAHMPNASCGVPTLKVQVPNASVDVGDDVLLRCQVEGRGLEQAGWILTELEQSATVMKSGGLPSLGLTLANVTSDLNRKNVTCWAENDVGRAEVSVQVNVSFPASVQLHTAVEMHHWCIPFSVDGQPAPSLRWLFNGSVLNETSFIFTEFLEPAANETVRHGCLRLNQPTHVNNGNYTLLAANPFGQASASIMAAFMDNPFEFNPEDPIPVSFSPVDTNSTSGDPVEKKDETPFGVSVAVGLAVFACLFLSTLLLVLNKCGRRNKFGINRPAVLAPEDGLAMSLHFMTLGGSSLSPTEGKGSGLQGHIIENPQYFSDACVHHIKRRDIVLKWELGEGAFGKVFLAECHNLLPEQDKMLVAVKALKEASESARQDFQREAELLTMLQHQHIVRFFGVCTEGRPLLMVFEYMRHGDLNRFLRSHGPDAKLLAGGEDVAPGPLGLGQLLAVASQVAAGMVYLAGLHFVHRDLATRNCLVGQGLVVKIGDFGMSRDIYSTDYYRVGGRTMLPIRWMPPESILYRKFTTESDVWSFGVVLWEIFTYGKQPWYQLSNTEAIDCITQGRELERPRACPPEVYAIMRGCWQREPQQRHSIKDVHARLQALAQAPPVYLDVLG

IC50 [1] [µM]	IC50 [2, 4] [µM]	inhibition at 1 µM [3, 5] [%]	SMILES	IC50 ([2]; Homo sapiens) [µM]	inhibition at 1 µM [3] [%]
0.01	0.089	97	Cc1cc2[nH]c(-c3n[nH]c4c3C[C@@H]3C[C@]3(C)C4)nc2cc1N(C)C(=O)[C@H]1CCCO1 [Example 23, (R)-N-Methyl-N-(5-methyl-2-((4aS,5aR)-5a-methyl-1,4,4a,5,5a,6-hexahydrocyclopropa[f]indazol-3-yl)-1H-benzo[d]imidazol-6-yl)tetrahydrofuran-2-carboxamide]	–	–
0.007	0.074	97	CCOCC(=O)N(C)c1cc2nc(-c3n[nH]c4c3C[C@@H]3C[C@]3(C)C4)[nH]c2cc1C [Example 38, 2-Ethoxy-N-methyl-N-(6-methyl-2-((4aS,5aR)-5a-methyl-1,4,4a,5,5a,6-hexahydrocyclopropa[f]indazol-3-yl)-1H-benzo[d]imidazol-5-yl)acetamide]	–	–
0.071	0.391	105	CC(=O)Nc1cc2nc(-c3n[nH]c4c3C[C@@H]3C[C@]3(C)C4)[nH]c2cc1C [Example 4, N-(6-methyl-2-((4aS,5aR)-5a-methyl-1,4,4a,5,5a,6-hexahydrocyclopropa[f]indazol-3-yl)-1H-benzo[d]imidazol-5-yl)acetamide]	–	–
0.037	0.173	103	COc1cc2[nH]c(-c3n[nH]c4c3C[C@@H]3C[C@]3(C)C4)nc2cc1N(C)C(C)=O [Example 6, N-(6-methoxy-2-((4aS,5aR)-5a-methyl-1,4,4a,5,5a,6-hexahydrocyclopropa[f]indazol-3-yl)-1H-benzo[d]imidazol-5-yl)-N-methylacetamide]	–	–
0.003	0.069	98	Cc1cc2[nH]c(-c3n[nH]c4c3C[C@@H]3C[C@]3(C)C4)nc2cc1N(C)C(=O)CN1CCCC1=O [Example 31, N-Methyl-N-(6-methyl-2-((4aS,5aR)-5a-methyl-1,4,4a,5,5a,6-hexahydrocyclopropa[f]indazol-3-yl)-1H-benzo[d]imidazol-5-yl)-2-(2-oxopyrrolidin-1-yl)acetamide]	–	–
0.006	0.061	97	Cc1cc2[nH]c(-c3n[nH]c4c3C[C@@H]3C[C@]3(C)C4)nc2cc1N(C)C(=O)[C@@H]1CCOC1 [Example 29, (R)-N-Methyl-N-(6-methyl-2-((4aS,5aR)-5a-methyl-1,4,4a,5,5a,6-hexahydrocyclopropa[f]indazol-3-yl)-1H-benzo[d]imidazol-5-yl)tetrahydrofuran-3-carboxamide]	–	–
0.01	0.081	100	CC(=O)N(C)c1cc2nc(-c3n[nH]c4c3C[C@@H]3C[C@]3(C)C4)[nH]c2cc1C [Example 17, N-Methyl-N-(6-methyl-2-((4aS,5aR)-5a-methyl-1,4,4a,5,5a,6-hexahydrocyclopropa[f]indazol-3-yl)-1H-benzo[d]imidazol-5-yl)acetamide]	–	–
0.013	0.595	105	COCCOc1cc2[nH]c(-c3n[nH]c4c3C[C@@H]3C[C@]3(C)C4)nc2cc1N(C)C(C)=O [Example 7, N-(6-(2-methoxyethoxy)-2-((4aS,5aR)-5a-methyl-1,4,4a,5,5a,6-hexahydrocyclopropa[f]indazol-3-yl)-1H-benzo[d]imidazol-5-yl)-N-methylacetamide]	–	–

SMILES	IC50 [1] [µM]	IC50 [2, 4] [µM]	inhibition at 1 µM [3, 5] [%]	IC50 ([2]; Homo sapiens) [µM]	inhibition at 1 µM [3] [%]
Cc1cc2[nH]c(-c3n[nH]c4c3C[C@@H]3C[C@]3(C)C4)nc2cc1N(C)C(=O)CN(C)C(=O)C(C)C [Example 30, N-Methyl-N-(2-(methyl(6-methyl-2-((4aS,5aR)-5a-methyl-1,4,4a,5,5a,6-hexahydrocyclopropa[f]indazol-3-yl)-1H-benzo[d]imidazol-5-yl)amino)-2-oxoethyl)isobutyramide]	0.003	–	–	0.051	98

Reference: US20240132477A1, “Benzimidazole Derivatives and Their Use As Inhibitors of ITK For The Treatment of Skin Disease” (PFIZER INC., priority 2020, published 2024)
